Results from PubChem BioAssay (NCI).
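Assay format: 96-well plates, 48-hour exposure. GI50: concentration for 50% inhibition of growth. TGI denotes the concentration required for complete inhibition of growth.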

How the values were obtained:
Assay in all cases: NCI-60 cell line screen, 48 h
COLO 205 colon = system: COLO 205 colon
A549 NSCLC = system: A549 NSCLC
NCI-H23 lung = system: NCI-H23 lung
UACC-257 melanoma = system: UACC-257 melanoma
HOP-62 NSCLC = system: HOP-62 NSCLC
OVCAR-3 ovarian = system: OVCAR-3 ovarian
NCI-H226 lung = system: NCI-H226 lung
A498 renal = system: A498 renal
K-562 leukemia = system: K-562 leukemia
SK-MEL-28 melanoma = system: SK-MEL-28 melanoma
OVCAR-5 ovarian = system: OVCAR-5 ovarian
SNB-75 CNS = system: SNB-75 CNS
MDA-MB-435 = system: MDA-MB-435
HS 578T breast = system: HS 578T breast
RPMI-8226 leukemia = system: RPMI-8226 leukemia
MALME-3M melanoma = system: MALME-3M melanoma
M14 melanoma = system: M14 melanoma
HT29 colon = system: HT29 colon
BT-549 breast = system: BT-549 breast
MDA-MB-231 breast = system: MDA-MB-231 breast
HCC-2998 colon = system: HCC-2998 colon
RXF 393 renal = system: RXF 393 renal
786-0 renal = system: 786-0 renal
HOP-92 NSCLC = system: HOP-92 NSCLC
SW-620 colon = system: SW-620 colon
HCT-116 colon = system: HCT-116 colon
PC-3 prostate = system: PC-3 prostate
CAKI-1 renal = system: CAKI-1 renal
OVCAR-4 ovarian = system: OVCAR-4 ovarian

Structure (SMILES): COc1cccc2nc(Nc3ccc(F)c(NC(=O)c4ccc(CN5CCN(C)CC5)c(C(F)(F)F)c4)c3)ccc12
- GI50 (COLO 205 colon): 17.2 µM
- TGI (COLO 205 colon): 31.9 µM
- GI50 (A549 NSCLC): 12.2 µM
- TGI (A549 NSCLC): 24.6 µM
- GI50 (NCI-H23 lung): 15.5 µM
- TGI (NCI-H23 lung): 29.6 µM
- GI50 (UACC-257 melanoma): 16.3 µM
- TGI (UACC-257 melanoma): 30.1 µM
- GI50 (HOP-62 NSCLC): 14.5 µM
- TGI (HOP-62 NSCLC): 28 µM
- GI50 (OVCAR-3 ovarian): 14.4 µM
- TGI (OVCAR-3 ovarian): 28 µM
- GI50 (NCI-H226 lung): 11.1 µM
- TGI (NCI-H226 lung): 24.7 µM
- GI50 (A498 renal): 17 µM
- TGI (A498 renal): 32.2 µM
- GI50 (K-562 leukemia): 3.59 µM
- TGI (K-562 leukemia): 20.9 µM
- GI50 (SK-MEL-28 melanoma): 15.3 µM
- TGI (SK-MEL-28 melanoma): 30.3 µM
- GI50 (OVCAR-5 ovarian): 16.1 µM
- TGI (OVCAR-5 ovarian): 30.4 µM
- GI50 (SNB-75 CNS): 9.08 µM
- TGI (SNB-75 CNS): 21.4 µM
- GI50 (MDA-MB-435): 15.1 µM
- TGI (MDA-MB-435): 28.3 µM
- GI50 (HS 578T breast): 14.1 µM
- TGI (HS 578T breast): 39.9 µM
- GI50 (RPMI-8226 leukemia): 9.3 µM
- TGI (RPMI-8226 leukemia): 27.1 µM
- GI50 (MALME-3M melanoma): 11.7 µM
- TGI (MALME-3M melanoma): 24.1 µM
- GI50 (M14 melanoma): 13.1 µM
- TGI (M14 melanoma): 27.5 µM
- GI50 (HT29 colon): 3.61 µM
- TGI (HT29 colon): 13.9 µM
- GI50 (BT-549 breast): 10.5 µM
- TGI (BT-549 breast): 22.6 µM
- GI50 (MDA-MB-231 breast): 12.1 µM
- TGI (MDA-MB-231 breast): 24.9 µM
- GI50 (HCC-2998 colon): 18.8 µM
- TGI (HCC-2998 colon): 33.2 µM
- GI50 (RXF 393 renal): 3.71 µM
- TGI (RXF 393 renal): 17.2 µM
- GI50 (786-0 renal): 12.5 µM
- TGI (786-0 renal): 26.4 µM
- GI50 (HOP-92 NSCLC): 6.64 µM
- TGI (HOP-92 NSCLC): 21.6 µM
- GI50 (SW-620 colon): 16.9 µM
- TGI (SW-620 colon): 30.9 µM
- GI50 (HCT-116 colon): 8.75 µM
- TGI (HCT-116 colon): 22.6 µM
- GI50 (PC-3 prostate): 12 µM
- TGI (PC-3 prostate): 28.7 µM
- GI50 (CAKI-1 renal): 11.5 µM
- TGI (CAKI-1 renal): 24.2 µM
- GI50 (OVCAR-4 ovarian): 13.9 µM
- TGI (OVCAR-4 ovarian): 28.9 µM
